One block for each compound: values may come before it.
Tests used:
[1] = system: HCT 116 (colorectal carcinoma) cells; test: Cell proliferation assay HCT 116 (Alamar Blue); type: cell-based; settings: Homo sapiens; anti-proliferative effect, HCT 116 cells (negative control line), 72 h
Experimental: Cell Proliferation Assays
Compounds were tested for their anti-proliferative effects in the TC-71 (EWING'S sarcoma) and HCT 116 (colorectal carcinoma) cancer cell lines in vitro. Published scientific data has described that interference with the IGF-1R signaling pathway reduces the proliferation of TC-71 cells (Manara et al, 2007). Therefore TC-71 cells served as a positive control cell line for monitoring the activity of compounds against IGF-1R-mediated cell proliferation. […] Therefore the HCT 116 cell line served as a negative control.
2000 TC-71 cells or 1000 HCT 116 cells were seeded per well in 180 μL IMDM+10% foetal calf serum (FCS)+penicillin/streptomycin into 96-well microtitre plates. The plates were placed in a cell culture incubator (37° C. in a humidified atmosphere of […]/5% CO2) overnight. The following day, serial dilutions of compounds, prepared in duplicates, were transferred onto the cell layers (controls without compound). The cells were cultivated for a further 72 h in the cell culture incubator. 20 μL of Alamar Blue™ (Serotec Ltd, Dusseldorf, Germany) was added to each well and the plates incubated for 7 h in the cell culture incubator. Fluorescence (extinction wavelength of 544 nm and emission at 590 nm) was then measured and the normalized data fitted by iterative calculation with a sigmoidal curve analysis program (Graph Pad Prism) with a variable Hill slope to determine the EC50 values.

GSK3B (GSK3 beta) = biological target: T1, GSK3B (GSK3 beta) (Homo sapiens, UniProt P49841); test: Z'-LYTE kinase selectivity assay GSK3B; type: biochemical
T1 construct: purchased Life Technologies PV 3365
T1 sequence (P49841 whole entry): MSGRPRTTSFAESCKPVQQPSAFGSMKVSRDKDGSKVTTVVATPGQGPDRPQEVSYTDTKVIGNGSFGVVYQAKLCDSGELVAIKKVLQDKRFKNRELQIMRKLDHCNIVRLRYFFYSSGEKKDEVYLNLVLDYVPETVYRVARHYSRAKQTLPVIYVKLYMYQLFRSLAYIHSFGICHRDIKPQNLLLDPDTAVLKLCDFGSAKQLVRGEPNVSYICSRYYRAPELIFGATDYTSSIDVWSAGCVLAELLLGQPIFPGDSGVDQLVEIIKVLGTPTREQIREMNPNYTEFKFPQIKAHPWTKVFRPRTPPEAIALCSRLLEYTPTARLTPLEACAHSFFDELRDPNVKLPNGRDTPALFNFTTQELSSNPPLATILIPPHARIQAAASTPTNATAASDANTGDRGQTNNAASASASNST
Excerpt: (§1) In order to compare the kinase selectivity of compounds (I) according to the invention with known prior art compounds the commercially provided SelectScreen® Kinase Profiling Service (Z′-LYTE®) was used (Life Technologies GmbH, Darmstadt, Germany) to investigate the ability of the compounds to inhibit a number of different, representatively selected human kinases. Further details regarding this service are available on the Life Technologies website at
(§2) The Z′-LYTE® biochemical assay employs a fluorescence-based, coupled-enzyme format and is based on the differential sensitivity of phosphorylated and non-phosphorylated peptides to proteolytic cleavage. The peptide substrate is labeled with two fluorophores—one at each end—that make up a FRET pair.
(§3) In the primary reaction, the kinase transfers the gamma-phosphate of ATP to a single tyrosine, serine or threonine residue in a synthetic FRET-peptide. In the secondary reaction, a site-specific protease recognizes and cleaves non-phosphorylated FRET-peptides. Phosphorylation of FRET-peptides suppresses cleavage by the Development Reagent. Cleavage disrupts FRET between the donor (i.e., coumarin) and acceptor (i.e., fluorescein) fluorophores on the FRET-peptide, whereas uncleaved, phosphorylated FRET-peptides maintain FRET. A ratiometric method, which calculates the ratio (the Emission Ratio) of donor emission to acceptor emission after excitation of the donor fluorophore at 400 nm, is used to quantitate reaction progress, as shown in the equation below.
(§4) The Test Compounds are screened at 1 μM.
The 2×GSK3B (GSK3 beta) (# PV 3365)/Ser/Thr 09 (Z′-LYTE® Kinase Assay Kit—Ser/Thr 9 Peptide, # PV 3324) mixture is prepared in 50 mM HEPES pH 7.5, 0.01% BRIJ-35, 10 mM MgCl2, 1 mM EGTA. The final 10 μL Kinase Reaction consists of 0.17-0.88 ng GSK3B (GSK3 beta) and 2 μM Ser/Thr 09 in 50 mM HEPES pH 7.5, 0.01% BRIJ-35, 10 mM MgCl2, 1 mM EGTA. After the 1 hour Kinase Reaction incubation, 5 μL of a 1:512 dilution of Development Reagent A is added.

MYLK2 (skMLCK) = biological target: T2, MYLK2 (skMLCK) (Homo sapiens, UniProt Q9H1R3); test: Z'-LYTE kinase selectivity assay MYLK2; type: biochemical
T2 construct: purchased Life Technologies PV 3757
Excerpt: as §1, §2, §3, §4
The 2×MYLK2 (skMLCK) (# PV 3757)/Ser/Thr 13 (Z′-LYTE® Kinase Assay Kit—Ser/Thr 13 Peptide, # PV 3793) mixture is prepared in 50 mM HEPES pH 7.5, 0.01% BRIJ-35, 10 mM MgCl2, 1 mM EGTA, 4 mM CaCl2, 800 U/mL Calmodulin, 0.02% NaN3. The final 10 μL Kinase Reaction consists of 6.71-48.9 ng MYLK2 (skMLCK) and 2 μM Ser/Thr 13 in 50 mM HEPES pH 7.5, 0.01% BRIJ-35, 10 mM MgCl2, 1 mM EGTA, 2 mM CaCl2, 400 U/mL Calmodulin, 0.01% NaN3. After the 1 hour Kinase Reaction incubation, 5 μL of a 1:1024 dilution of Development Reagent A is added.

NEK2 = biological target: T3, NEK2 (Homo sapiens, UniProt P51955); test: Z'-LYTE kinase selectivity assay NEK2; type: biochemical
T3 construct: purchased Life Technologies PV 3360
T3 sequence (P51955 1-445): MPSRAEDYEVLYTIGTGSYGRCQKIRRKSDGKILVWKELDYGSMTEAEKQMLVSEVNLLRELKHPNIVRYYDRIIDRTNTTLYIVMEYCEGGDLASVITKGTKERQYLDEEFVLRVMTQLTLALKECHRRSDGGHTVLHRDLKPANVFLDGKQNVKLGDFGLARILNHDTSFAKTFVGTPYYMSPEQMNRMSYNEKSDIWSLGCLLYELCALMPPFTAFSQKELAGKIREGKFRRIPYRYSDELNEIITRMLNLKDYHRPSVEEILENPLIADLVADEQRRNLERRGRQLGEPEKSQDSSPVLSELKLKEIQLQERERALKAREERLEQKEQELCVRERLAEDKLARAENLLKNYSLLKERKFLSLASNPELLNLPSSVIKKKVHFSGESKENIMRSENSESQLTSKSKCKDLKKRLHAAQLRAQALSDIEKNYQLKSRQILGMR
Excerpt: as §1, §2, §3, §4
The 2×NEK2 (# PV 3360)/Ser/Thr 07 (Z′-LYTE® Kinase Assay Kit—Ser/Thr 7 Peptide, # PV 3180) mixture is prepared in 50 mM HEPES pH 7.5, 0.01% BRIJ-35, 10 mM MgCl2, 1 mM EGTA. The final 10 μL Kinase Reaction consists of 0.5-5.4 ng NEK2 and 2 μM Ser/Thr 07 in 50 mM HEPES pH 7.5, 0.01% BRIJ-35, 10 mM MgCl2, 1 mM EGTA. After the 1 hour Kinase Reaction incubation, 5 μL of a 1:65000 dilution of Development Reagent A is added.

Structure (SMILES): C[C@@H]1Cc2nn(C)c(-c3ccccc3)c2-c2nc(Nc3ccn(CCN4CCN(C)CC4)n3)ncc21 [Compound I-1]
EC50 [1]: > 2500 nM
inhibition at 1 µM (GSK3B (GSK3 beta)): 14%
inhibition at 1 µM (MYLK2 (skMLCK)): 16%
inhibition at 1 µM (NEK2): 15%

Structure (SMILES): C[C@@H]1Cc2nn(C)c(-c3ccccc3)c2-c2nc(Nc3ccn(CCN4CCN(CC(=O)OC5CCOCC5)CC4)n3)ncc21 [Compound I-8]
EC50 [1]: > 2500 nM
inhibition at 1 µM (GSK3B (GSK3 beta)): 14%
inhibition at 1 µM (MYLK2 (skMLCK)): 13%
inhibition at 1 µM (NEK2): 22%

Structure (SMILES): C[C@@H]1Cc2nn(C)c(-c3ccccc3)c2-c2nc(Nc3ccn(CCN4CCN(CC5CCCO5)CC4)n3)ncc21 (stereo partly shown) [Compound I-9]
EC50 [1]: > 2500 nM
inhibition at 1 µM (GSK3B (GSK3 beta)): 9%
inhibition at 1 µM (MYLK2 (skMLCK)): 10%
inhibition at 1 µM (NEK2): 32%

Structure (SMILES): COCCN1CCN(CCn2ccc(Nc3ncc4c(n3)-c3c(nn(C)c3-c3ccccc3)C[C@H]4C)n2)CC1 [Compound I-11]
EC50 [1]: > 2500 nM
inhibition at 1 µM (GSK3B (GSK3 beta)): 8%
inhibition at 1 µM (MYLK2 (skMLCK)): 16%
inhibition at 1 µM (NEK2): 24%

Other lines, results leading:

EC50 [1]: > 2500 nM
inhibition at 1 µM (GSK3B (GSK3 beta)): 10%
inhibition at 1 µM (MYLK2 (skMLCK)): 3%
inhibition at 1 µM (NEK2): 25%
Structure (SMILES): C[C@@H]1Cc2nn(C)c(-c3ccccc3)c2-c2nc(Nc3ccn(CCN4CCOCC4)n3)ncc21 [Compound I-2]

EC50 [1]: 2000 nM
inhibition at 1 µM (GSK3B (GSK3 beta)): 9%
inhibition at 1 µM (MYLK2 (skMLCK)): 12%
inhibition at 1 µM (NEK2): 29%
Structure (SMILES): C[C@@H]1Cc2nn(C)c(-c3ccccc3)c2-c2nc(Nc3ccn(CCN4CCN(CC(C)(C)O)CC4)n3)ncc21 [Compound I-3]

EC50 [1]: 1840 nM
inhibition at 1 µM (GSK3B (GSK3 beta)): 10%
inhibition at 1 µM (MYLK2 (skMLCK)): 23%
inhibition at 1 µM (NEK2): 32%
Structure (SMILES): CC(O)CN1CCN(CCn2ccc(Nc3ncc4c(n3)-c3c(nn(C)c3-c3ccccc3)C[C@H]4C)n2)CC1 (stereo partly shown) [Compound I-7]

— patent US10414769B2, “5,8-dimethyl-9-phenyl-5,8-dihydro-6H-pyrazolo[3,4-h]quinazolin-2-yl)-(1H-pyrazol-3-yl)-amines as IGF-1R/IR inhibitors” (Boehringer Ingelheim International GmbH, priority 2015, dated 2019)
